Experimental findings from patent US6503951B2, “Use of creatine and/or creatine derivatives for treating typical disorders in women” (SKW Trostberg Aktiengesellschaft, priority 1999, dated 2003) are described below.

In test [1] the test system is migraines; pain during menstruation. The test is described as follows: Case 2:  four with migraines and menstrual pain. The class given is in vivo, person.
Test [2] concerns depressions, lethargy and physical feebleness; blood pressure. The test is described as follows: Case 6:  two. Format: in vivo, person. The source says:
Both they themself and their family noticed these improvements.

Test [3] deals with depressions, lethargy and physical feebleness. The test is described as follows: Case 4: postmenopausal person seven. The class given is in vivo. Particulars: daily dose of 1 to 4 g. The source says:
The improvements were also noticed by their family.

In a further test the test system is PMS. The test is described as follows: Case 7:  six with PMS. Format: in vivo, person. Particulars: average daily dose of 5 g.

As for `CN(CC(=O)O)C(=N)N.O` [creatine monohydrate], the “migraine attacks provoked by heat or bodily or mental exertion” value in test [1] (daily dose of 1.5 g, even under extreme conditions) was “able to prevent the attacks”. Further, the blood pressure entry in test [2] (combined with an antihypertensive agent, previously severely hypertonic (sys up to 270)) was “returned to normal”. Besides, in test [2] (daily dose of 1 to 5 g), the “motivation (lethargy)” value is reported as “unexpected new motivation”, the “spirits (depressions)” value is listed as “rise in spirits” and the “strength (physical feebleness)” value is “increase in strength”.

For the compound creatine ascorbate, in test [3], the “motivation (lethargy)” value is “unexpectedly motivated”, the “spirits (depressions)” value is reported as “rise in spirits” and the “strength (physical feebleness)” value is recorded as “gained in strength”.

creatine pyruvate: in test [1] (dose not stated), the pain during menstruation entry is “able to stop the pain”. Besides, in the test with PMS, the abdominal pain entry is recorded as “no longer suffered”; the “physical complaints of PMS” value is listed as “complete relief”; the “tenderness and swelling of the breast” value is “no longer suffered”.
